Assay results from patent US7041699B2, “Nutrient pharmaceutical formulation comprising polyphenols and use in treatment of cancer” (Matthias Rath, priority 2002, dated 2006).

Tests used:
[1] = test system: MDA-MB 231 human breast cancer cells; assay: Matrigel invasion and migration, MDA-MB-231
Procedure: The studies were conducted using Matrigel (Becton Dickinson) inserts in compatible 24-well plates. Fibroblasts were seeded and grown in the wells of the plate using DMEM. When fibroblasts reached confluence, the medium was withdrawn and replaced with 750 μl of the media designated for the treatment. The cancer cells (5×10^4) suspended in 250 μl of the medium supplemented with nutrients as specified in the design of the experiment were seeded on the insert in the well. Thus both the medium on the insert and in the well contained the same supplements. The plates with the inserts were then incubated (in air-circulating incubator for MDA-MB-231 cells and 5% CO2 incubator for colon cancer cells and melanoma cells) for 18–20 hours. After incubation, the media from the wells was withdrawn. The cells on the upper surface of the inserts were gently scrubbed away with cotton swab. The cells that had penetrated the Matrigel membrane and had migrated on the lower surface of the Matrigel were stained with hemacolor stain (EM Sciences) and were visually counted under the microscope. The results were subjected to ANOVA and all the possible pairs were tested for significance at p<0.05.
The media in different studies were supplemented with ascorbic acid, proline, lysine and EGCG at concentrations as indicated.
MDA-MB 231 (ATCC) breast cancer cells were seeded on Matrigel insert in an improved Matrigel Invasion Chamber (BD). Conditioned media from normal human dermal fibroblast (Clonetics) supplemented with various agents (as indicated on FIG. 1) were added to the well. The chamber was incubated for 24 hours and the cells that had invaded the Matrigel membrane and had migrated into the lower surface of the membrane were counted.

[2] = test system: A2058 human melanoma cells; assay: Matrigel invasion and migration, melanoma cells; format: cell-based; conditions: conditioned media from NHDF, 24 hours
Procedure: The studies were conducted using Matrigel (Becton Dickinson) inserts in compatible 24-well plates. Fibroblasts were seeded and grown in the wells of the plate using DMEM. When fibroblasts reached confluence, the medium was withdrawn and replaced with 750 μl of the media designated for the treatment. The cancer cells (5×10^4) suspended in 250 μl of the medium supplemented with nutrients as specified in the design of the experiment were seeded on the insert in the well. Thus both the medium on the insert and in the well contained the same supplements. The plates with the inserts were then incubated (in air-circulating incubator for MDA-MB-231 cells and 5% CO2 incubator for colon cancer cells and melanoma cells) for 18–20 hours. After incubation, the media from the wells was withdrawn. The cells on the upper surface of the inserts were gently scrubbed away with cotton swab. The cells that had penetrated the Matrigel membrane and had migrated on the lower surface of the Matrigel were stained with hemacolor stain (EM Sciences) and were visually counted under the microscope. […]
A2058 (ATCC) human melanoma cells were seeded on Matrigel insert in improved Matrigel Invasion Chamber (BD). […] The chamber was incubated for 24 hours and the cells that had invaded the Matrigel membrane and had migrated into the lower surface of the membrane were counted.

[3] = test system: human melanoma cell line A2058; assay: MTT cell proliferation/growth, melanoma cells
[4] = test system: human breast cancer cells MDA-MB-231; assay: MTT cell proliferation/growth, breast cancer MDA-MB-231
MMP-2 and MMP-9 = assay: Gelatinase zymography, melanoma cells; format: cell-based, human; conditions: overall / dose dependence
Procedure: Gelatinase zymography was performed in 10% Novex pre-cast polyacrylamide gel (Invitrogen) in the presence of 0.1% gelatin. Culture media (20 μl) was loaded and SDS-PAGE was performed with tris-glysine SDS buffer. After electrophoresis, the gels were washed with 5% Triton X-100 for 30 minutes and stained. Protein standards were run concurrently and approximate molecular weights were determined.
The effect of EGCG on melanoma cells with basal and ascorbic acid, proline, and lysine supplementation on expression of MMPs is depicted in FIG. 9 by gelatinase zymography. […] The intensity of bands for basal and ascorbic acid, lysine and proline combination were the same.

[5] = test system: HCT116 human colon cancer cells; assay: Matrigel invasion and migration, HCT116; format: cell-based
Procedure: The studies were conducted using Matrigel (Becton Dickinson) inserts in compatible 24-well plates. Fibroblasts were seeded and grown in the wells of the plate using DMEM. When fibroblasts reached confluence, the medium was withdrawn and replaced with 750 μl of the media designated for the treatment. The cancer cells (5×10^4) suspended in 250 μl of the medium supplemented with nutrients as specified in the design of the experiment were seeded on the insert in the well. Thus both the medium on the insert and in the well contained the same supplements. […] After incubation, the media from the wells was withdrawn. The cells on the upper surface of the inserts were gently scrubbed away with cotton swab. The cells that had penetrated the Matrigel membrane and had migrated on the lower surface of the Matrigel were stained with hemacolor stain (EM Sciences) and were visually counted under the microscope. The results were subjected to ANOVA and all the possible pairs were tested for significance at p<0.05. […]
HTCT116 (ATCC) human colon cancer cells were seeded on Matrigel insert in an improved Matrigel Invasion Chamber (BD). […] The chamber was incubated for 24 hours and the cells that had invaded the Matrigel membrane and had migrated into the lower surface of the membrane were counted.

Row | Compound | invasion reduced by ([1]; MDA-MB-231, another series, 100 μM ascorbic acid, 140 μM proline) | Matrigel invasion and migration (FIG. 3) [2] | cell proliferation (cell number, Basal = 100) ([3]; EGCG 50 μg/ml) | cell proliferation (cell number, Basal = 100) ([3]; EGCG 10 and 20 μg/ml) | cell number compared to control ([4]; EGCG 50 μg/ml) | cell number compared to control ([4]; EGCG 100 μg/ml) | cell number compared to control ([4]; EGCG 200 μg/ml) | cell number compared to unsupplemented controls ([4]; EGCG up to 20 μg/ml) | Matrigel invasion and migration (FIG. 1) ([1]; MDA-MB 231, conditioned media from NHDF, 24 hours) | Matrigel invasion (number of invading cells) compared to non-supplemented media ([1]; MDA-MB-231, EGCG 20 μg/ml) | Matrigel invasion ([1]; MDA-MB-231, EGCG 50 μg/ml and 100 μg/ml) | expression of MMP-2 and MMP-9 (zymography bands) (MMP-2 and MMP-9) | Matrigel invasion of colon cancer cells (reduced to) ([5]; EGCG 20 μg/ml) | Matrigel invasion and migration (FIG. 2) ([5]; conditioned media from NHDF, 24 hours)
1 | O=C1O[C@H]([C@@H](O)CO)C(O)=C1O [ascorbic acid] | 36% | – | – | – | – | – | – | – | – | – | – | – | – | –
2 | O=C(O[C@@H]1Cc2c(O)cc(O)cc2O[C@@H]1c1cc(O)c(O)c(O)c1)c1cc(O)c(O)c(O)c1 [EGCG, (−)-epigallocatechin-3-gallate] | – | inhibitory effect | 30% | Neither lysine, proline, and ascorbic acid nor EGCG at 10 and 20 μg/ml had any significant effect | 66.1±5.3% | 33.6±2% | 29.6±0.8% | did not have any significant inhibitory effect | inhibitory effect | 69.5±27.4% | complete inhibition | inhibitory effect on their expression in a dose dependent fashion | 44.9±3.3% | inhibitory effect
